According to ChEMBL document CHEMBL5500371, “Arginine and tryptophan-rich dendritic antimicrobial peptides that disrupt membranes for bacterial infection in vivo” (Eur J Med Chem, 2024):
Blank lines part the entries; values can stand above or below the substance they belong to.

Tests used:
Klebsiella pneumoniae = test: Antibacterial activity against Klebsiella pneumoniae ATCC 700603 assessed as inhibition of bacterial growth incubated for 20 hrs by broth microdilution method; format: functional
Staphylococcus aureus [1] = test: Antibacterial activity against Staphylococcus aureus ATCC 25923 assessed as inhibition of bacterial growth incubated for 20 hrs by broth microdilution method; format: functional
Erythrocyte = test: Hemolytic activity in mouse erythrocytes assessed as 10% hemolysis incubated for 1 hr by absorbance based analysis; format: toxicity, cell-based
Pseudomonas aeruginosa = test: Antibacterial activity against Pseudomonas aeruginosa ATCC 27853 assessed as inhibition of bacterial growth incubated for 20 hrs by broth microdilution method; format: functional
[2] = Cytotoxicity against HEK293T cells assessed as cell death measured after 1 hr by resazurin dye based analysis; format: toxicity, HEK-293T; conditions: human, HEK293T cells
Bacillus subtilis = test: Antibacterial activity against Bacillus subtilis ATCC 23857 assessed as inhibition of bacterial growth incubated for 20 hrs by broth microdilution method; format: functional
Escherichia coli [3] = test: Antibacterial activity against Escherichia coli ATCC 25922 assessed as inhibition of bacterial growth incubated for 20 hrs by broth microdilution method; format: functional
Acinetobacter baumannii = test: Antibacterial activity against Acinetobacter baumannii ATCC 19606 assessed as inhibition of bacterial growth incubated for 20 hrs by broth microdilution method; format: functional
Staphylococcus aureus [4] = test: Antibacterial activity against Staphylococcus aureus ATCC 25923 assessed as inhibition of bacterial growth incubated for 20 hrs in presence of ZnCl2 by broth microdilution method (reference value: 8 microM); format: functional
Escherichia coli [5] = test: Antibacterial activity against Escherichia coli ATCC 25922 assessed as inhibition of bacterial growth preincubated with 10% mouse serum for 6 hrs and measured after 20 hrs by broth microdilution method; format: functional; conditions: time 26 hrs
[6] = Therapeutic index, ratio of MHC10 for hemolytic activity in mouse erythrocytes preincubated with 10% mouse serum for 1 hr to MIC for Escherichia coli ATCC 25922 preincubated with 10% mouse serum for 1 hr; format: toxicity, cell-based; conditions: mouse erythrocytes, read-out: TI
Staphylococcus aureus [7] = test: Antibacterial activity against Staphylococcus aureus ATCC 25923 assessed as inhibition of bacterial growth preincubated with 10% mouse serum for 1 hr and measured after 20 hrs by broth microdilution method; format: functional; conditions: time 21 hrs
Staphylococcus aureus [8] = test: Antibacterial activity against Staphylococcus aureus ATCC 25923 assessed as inhibition of bacterial growth by measuring fold increase in MIC incubated for 20 hrs in presence of FeCl3 by broth microdilution method relative to control; format: functional
Staphylococcus aureus [9] = test: Antibacterial activity against Staphylococcus aureus ATCC 25923 assessed as inhibition of bacterial growth incubated for 20 hrs in presence of FeCl3 by broth microdilution method (reference value: 8 microM); format: functional
Staphylococcus aureus [10] = test: Antibacterial activity against Staphylococcus aureus ATCC 25923 assessed as inhibition of bacterial growth incubated for 20 hrs in presence of NaCl by broth microdilution method (reference value: 8 microM); format: functional
Escherichia coli [11] = test: Antibacterial activity against Escherichia coli ATCC 25922 assessed as inhibition of bacterial growth incubated for 20 hrs in presence of KCl by broth microdilution method (reference value: 16 microM); format: functional
[12] = Therapeutic index, ratio of MHC10 for hemolytic activity in mouse erythrocytes preincubated with 10% mouse serum for 1 hr to MIC for Staphylococcus aureus ATCC 25923 preincubated with 10% mouse serum for 1 hr; format: toxicity, cell-based; conditions: mouse erythrocytes, read-out: TI
Escherichia coli [13] = test: Antibacterial activity against Escherichia coli ATCC 25922 assessed as inhibition of bacterial growth preincubated with 10% mouse serum for 1 hr and measured after 20 hrs by broth microdilution method; format: functional; conditions: time 21 hrs
Staphylococcus aureus [14] = test: Antibacterial activity against Staphylococcus aureus ATCC 25923 assessed as inhibition of bacterial growth by measuring fold increase in MIC incubated for 20 hrs in presence of MgCl2 by broth microdilution method relative to control; format: functional
Escherichia coli [15] = test: Antibacterial activity against Escherichia coli ATCC 25922 assessed as inhibition of bacterial growth incubated for 20 hrs in presence of ZnCl2 by broth microdilution method (reference value: 16 microM); format: functional
Staphylococcus aureus [16] = test: Antibacterial activity against Staphylococcus aureus ATCC 25923 assessed as inhibition of bacterial growth by measuring fold increase in MIC incubated for 20 hrs in presence of NaCl by broth microdilution method relative to control; format: functional
Staphylococcus aureus [17] = test: Antibacterial activity against Staphylococcus aureus ATCC 25923 assessed as inhibition of bacterial growth incubated for 20 hrs in presence of KCl by broth microdilution method (reference value: 8 microM); format: functional
Staphylococcus aureus [18] = test: Antibacterial activity against Staphylococcus aureus ATCC 25923 assessed as inhibition of bacterial growth incubated for 20 hrs in presence of MgCl2 by broth microdilution method (reference value: 8 microM); format: functional
[19] = Hemolytic activity in mouse erythrocytes at 256 uM preincubated for 1 to 6 hr with 10% mouse serum and measured after 1 hr by absorbance based analysis; format: toxicity, cell-based, Erythrocyte; conditions: time 1-7 hrs, read-out: Activity
Staphylococcus aureus [20] = test: Antibacterial activity against Staphylococcus aureus ATCC 25923 assessed as inhibition of bacterial growth preincubated with 10% mouse serum for 6 hrs and measured after 20 hrs by broth microdilution method; format: functional; conditions: time 21 hrs
[21] = Therapeutic index, ratio of MHC10 for hemolytic activity in mouse erythrocytes preincubated with 10% mouse serum for 6 hrs to MIC for Staphylococcus aureus ATCC 25923 preincubated with 10% mouse serum for 6 hrs; format: toxicity, cell-based; conditions: mouse erythrocytes, read-out: TI
[22] = Therapeutic index, ratio of MHC10 for hemolytic activity in mouse erythrocytes preincubated with 10% mouse serum for 6 hrs to MIC for Escherichia coli ATCC 25922 preincubated with 10% mouse serum for 6 hrs; format: toxicity, cell-based; conditions: mouse erythrocytes, read-out: TI
[23] = Stability in mouse serum assessed as half life at 10 mM measured upto 24 hrs by RP-HPLC analysis; format: ADME, cell-free
Staphylococcus aureus [24] = test: Antibacterial activity against Staphylococcus aureus ATCC 25923 assessed as inhibition of bacterial growth by measuring fold increase in MIC incubated for 20 hrs in presence of ZnCl2 by broth microdilution method relative to control; format: functional
Escherichia coli [25] = test: Antibacterial activity against Escherichia coli ATCC 25922 assessed as inhibition of bacterial growth incubated for 20 hrs in presence of NaCl by broth microdilution method (reference value: 16 microM); format: functional
Staphylococcus aureus [26] = test: Antibacterial activity against Staphylococcus aureus ATCC 25923 assessed as inhibition of bacterial growth by measuring fold increase in MIC incubated for 20 hrs in presence of KCl by broth microdilution method relative to control; format: functional
Escherichia coli [27] = test: Antibacterial activity against Escherichia coli ATCC 25922 assessed as inhibition of bacterial growth incubated for 20 hrs in presence of MgCl2 by broth microdilution method (reference value: 16 microM); format: functional
Escherichia coli [28] = test: Antibacterial activity against Escherichia coli ATCC 25922 assessed as inhibition of bacterial growth incubated for 20 hrs in presence of FeCl3 by broth microdilution method (reference value: 16 microM); format: functional

MIC (Klebsiella pneumoniae): > 128 µM | MIC (Staphylococcus aureus [1]): > 128 µM | MIC (Pseudomonas aeruginosa): > 128 µM | MIC (Bacillus subtilis): 128 µM | MIC (Escherichia coli [3]): > 128 µM | MIC (Acinetobacter baumannii): > 128 µM
Substance: H-WWKRR-NH2
MHC10 (Erythrocyte): > 256 µM | CC50 at 1 h [2]: > 128 µM

MIC (Klebsiella pneumoniae): > 128 µM | MIC (Staphylococcus aureus [1]): > 128 µM | MIC (Pseudomonas aeruginosa): > 128 µM | MIC (Bacillus subtilis): 64 µM | MIC (Escherichia coli [3]): > 128 µM | MIC (Acinetobacter baumannii): > 128 µM
Substance: H-WWKRRR-NH2
MHC10 (Erythrocyte): > 256 µM | CC50 at 1 h [2]: > 128 µM

MIC (Klebsiella pneumoniae): 64 µM | MIC (Staphylococcus aureus [1]): 8 µM | MIC (Pseudomonas aeruginosa): 16 µM | MIC (Bacillus subtilis): 8 µM | MIC (Escherichia coli [3]): 32 µM | MIC (Acinetobacter baumannii): 32 µM
Substance: H-WWWWKRRR-NH2
MHC10 (Erythrocyte): > 256 µM | CC50 at 1 h [2]: > 128 µM

MIC (Staphylococcus aureus [4]): 8 µM | MIC (Escherichia coli [5]): 8 µM | MIC (Staphylococcus aureus [7]): 2 µM | MIC (Staphylococcus aureus [9]): 8 µM | MIC (Staphylococcus aureus [10]): 8 µM | MIC (Klebsiella pneumoniae): 64 µM | MIC (Escherichia coli [11]): 8 µM | MIC (Escherichia coli [13]): 2 µM | MIC (Escherichia coli [15]): 16 µM | MIC (Staphylococcus aureus [1]): 8 µM | MIC (Staphylococcus aureus [17]): 8 µM | MIC (Staphylococcus aureus [18]): 8 µM | MIC (Staphylococcus aureus [20]): 8 µM | MIC (Pseudomonas aeruginosa): 8 µM | half-life at 10000 µM [23]: 85.3 min | MIC (Bacillus subtilis): 8 µM | MIC (Escherichia coli [25]): 32 µM | MIC (Escherichia coli [3]): 32 µM | MIC (Escherichia coli [27]): 8 µM | MIC (Acinetobacter baumannii): 32 µM | MIC (Escherichia coli [28]): 16 µM
Substance: H-WWWWKRRRR-NH2
selectivity ratio [6]: 0.5 | fold change (FC) (Staphylococcus aureus [8]): <=2 | selectivity ratio [12]: 0.5 | fold change (FC) (Staphylococcus aureus [14]): <=2 | MHC10 (Erythrocyte): > 256 µM | fold change (FC) (Staphylococcus aureus [16]): <=2 | hemolysis at 1 h, 256 µM [19]: < 10% | selectivity ratio [21]: 0.13 | CC50 at 1 h [2]: > 128 µM | selectivity ratio [22]: 0.13 | fold change (FC) (Staphylococcus aureus [24]): <=2 | fold change (FC) (Staphylococcus aureus [26]): <=2

MIC (Klebsiella pneumoniae): 32 µM | MIC (Staphylococcus aureus [1]): 8 µM | MIC (Pseudomonas aeruginosa): 16 µM | MIC (Bacillus subtilis): 8 µM | MIC (Escherichia coli [3]): 16 µM | MIC (Acinetobacter baumannii): 32 µM
Substance: H-WWWWKRRRRR-NH2
MHC10 (Erythrocyte): > 256 µM | CC50 at 1 h [2]: 116 µM

MIC (Klebsiella pneumoniae): 32 µM | MIC (Staphylococcus aureus [1]): 8 µM | MIC (Pseudomonas aeruginosa): 16 µM | MIC (Bacillus subtilis): 8 µM | MIC (Escherichia coli [3]): 16 µM | MIC (Acinetobacter baumannii): 16 µM
Substance: H-WWWWWWKRRRRR-NH2
MHC10 (Erythrocyte): 29.45 µM | CC50 at 1 h [2]: 44.9 µM

MIC (Klebsiella pneumoniae): 16 µM | MIC (Staphylococcus aureus [1]): 8 µM | MIC (Pseudomonas aeruginosa): 32 µM | MIC (Bacillus subtilis): 8 µM | MIC (Escherichia coli [3]): 16 µM | MIC (Acinetobacter baumannii): 32 µM
Substance: H-WWWWWWKRRRRRR-NH2
MHC10 (Erythrocyte): 34.63 µM | CC50 at 1 h [2]: 45 µM

MIC (Klebsiella pneumoniae): 32 µM | MIC (Staphylococcus aureus [1]): 32 µM | MIC (Pseudomonas aeruginosa): 32 µM | MIC (Bacillus subtilis): 16 µM | MIC (Escherichia coli [3]): 32 µM | MIC (Acinetobacter baumannii): 32 µM
Substance: H-WWWWWWKRRRRRRR-NH2
MHC10 (Erythrocyte): 27.86 µM | CC50 at 1 h [2]: 46.6 µM
